What was measured:
[1] = system: Midazolium-based-macrocycle; assay: Binding affinity to Midazolium-based-macrocycle by Competition UV-Vis titration method
Rattus norvegicus [2] = assay: Recovery of CisA-induced neuromuscular block in Sprague-Dawley rat assessed as […] ratio (TOFr) >= 90% by measuring recovery time at 120 mg/kg, iv (reference value: 784 seconds); assay type: functional
[3] = Therapeutic index, ratio of toxicity in iv dosed Sprague-Dawley rat assessed as maximum tolerated dose to recovery of CisA-induced neuromuscular block in Sprague-Dawley rat assessed as […] ratio (TOFr) by measuring recovery time at 80 to 100 mg/kg, iv; assay type: organism-based; details: in vivo, dose 80-100 mg/kg, read-out: TI
[4] = Toxicity in iv dosed Sprague-Dawley rat assessed as maximum tolerated dose measured upto 14 days; assay type: organism-based; details: in vivo, 336 h, time < 14 day
Vecuronium = assay: Binding affinity to Vecuronium by Competition UV-Vis titration method
[5] = Water solubility of the compound measured at 25 degreeC; assay type: physicochemical
[6] = system: Trans-cydohexane-1,4-diartunonium dichloride; assay: Binding affinity to Trans-[…] dichloride by Competition UV-Vis titration method
Rattus norvegicus [7] = assay: Recovery of Pan-induced neuromuscular block in Sprague-Dawley rat assessed as […] ratio (TOFr) >= 90% by measuring recovery time at 25 mg/kg, iv (reference value: 3600 seconds); assay type: functional
Cisatracurium = assay: Binding affinity to Cisatracurium by Competition UV-Vis titration method
[8] = Therapeutic index, ratio of toxicity in iv dosed Sprague-Dawley rat assessed as maximum tolerated dose to recovery of Roc/Vec/Panc-induced neuromuscular block in Sprague-Dawley rat assessed as […] ratio (TOFr) by measuring recovery time at 25 mg/kg, iv; assay type: organism-based; details: in vivo, read-out: TI
Rattus norvegicus [9] = assay: Recovery of Roc-induced neuromuscular block in Sprague-Dawley rat assessed as […] ratio (TOFr) >= 90% by measuring recovery time at 25 mg/kg, iv (reference value: 597 seconds); assay type: functional
Rocuronium = assay: Binding affinity to Rocuronium by Competition UV-Vis titration method
Proflavine = assay: Binding affinity to Proflavine by Competition UV-Vis titration method
Rhodamine 6G = assay: Binding affinity to Rhodamine 6G by Competition UV-Vis titration method
Pancuronium = assay: Binding affinity to Pancuronium by Competition UV-Vis titration method
Rattus norvegicus [10] = assay: Recovery of CisA-induced neuromuscular block in Sprague-Dawley rat assessed as […] ratio (TOFr) >= 90% by measuring recovery time at 80 mg/kg, iv (reference value: 784 seconds); assay type: functional
Rattus norvegicus [11] = assay: Recovery of IMC-1-induced neuromuscular block in Sprague-Dawley rat assessed as […] ratio (TOFr) >= 90% by measuring recovery time at 10 mg/kg, iv (reference value: 4021 seconds); assay type: functional
[12] = Solubility of the compound in sodium phosphate buffered water; assay type: physicochemical
Rattus norvegicus [13] = assay: Recovery of Vec-induced neuromuscular block in Sprague-Dawley rat assessed as […] ratio (TOFr) >= 90% by measuring recovery time at 25 mg/kg, iv (reference value: 525 seconds); assay type: functional
[14] = Cytotoxicity against rat H9c2 cells assessed as cell viability measured after 25 hrs by CCK-8 assay; assay type: toxicity, cell-based
[15] = Hemolytic activity in Sprague-Dawley rat erythrocytes assessed as hemolysis at 0.51 to 32.8 mg/ml; assay type: toxicity, cell-based, Erythrocyte; details: dose 0.51-32.8 mg/ml, read-out: Activity
[16] = Toxicity in Sprague-Dawley rat assessed as histological changes in lungs measured at 2000 mg/kg, iv upto 14 days by H and E assay; assay type: organism-based; details: in vivo, 336 h, time < 14 day
Rattus norvegicus [17] = assay: Recovery of CisA-induced neuromuscular block in Sprague-Dawley rat assessed as […] ratio (TOFr) by measuring recovery time at 25 mg/kg, iv (reference value: 784 seconds); assay type: functional
[18] = Toxicity in Sprague-Dawley rat assessed as histological changes in heart measured at 2000 mg/kg, iv upto 14 days by H and E assay; assay type: organism-based; details: in vivo, 336 h, time < 14 day
[19] = Toxicity in human whole blood assessed as clotting indices measured at 1 mg/ml; assay type: tissue-based
[20] = Hemolytic activity in human erythrocytes assessed as hemolysis at 0.51 to 32.8 mg/ml; assay type: toxicity, cell-based, Erythrocyte; details: dose 0.51-32.8 mg/ml, read-out: Activity
[21] = Toxicity in Sprague-Dawley rat assessed as histological changes in liver measured at 2000 mg/kg, iv upto 14 days by H and E assay; assay type: organism-based; details: in vivo, 336 h, time < 14 day
[22] = Toxicity in Sprague-Dawley rat assessed as histological changes in kidney measured at 2000 mg/kg, iv upto 14 days by H and E assay; assay type: organism-based; details: in vivo, 336 h, time < 14 day
Rattus norvegicus [23] = assay: Recovery of CisA-induced neuromuscular block in Sprague-Dawley rat assessed as […] ratio (TOFr) >= 90% by measuring recovery time at 150 mg/kg, iv (reference value: 784 seconds); assay type: functional
[24] = Toxicity in Sprague-Dawley rat assessed as histological changes in spleen measured at 2000 mg/kg, iv upto 14 days by H and E assay; assay type: organism-based; details: in vivo, 336 h, time < 14 day
Rattus norvegicus [25] = assay: Recovery of Roc-induced neuromuscular block in Sprague-Dawley rat assessed as […] ratio (TOFr) by measuring recovery time at 12.5 mg/kg, iv (reference value: […]); assay type: functional
[26] = Toxicity in Sprague-Dawley rat assessed as body weight loss measured at 2000 mg/kg, iv upto 14 days; assay type: organism-based; details: in vivo, 336 h, time < 14 day
[27] = Cytotoxicity against rat H9c2 cells assessed as cell viability at 0.5 mg/ml measured after 25 hrs by CCK-8 assay; assay type: toxicity, cell-based; details: read-out: Activity
[28] = Toxicity in human plasma assessed as abnormality in aPTT by measuring clotting time at < 4.8 mg/kg; assay type: organism-based; details: in vivo
Rattus norvegicus [29] = assay: Recovery of CisA-induced neuromuscular block in Sprague-Dawley rat assessed as […] ratio (TOFr) >= 90% by measuring recovery time at 100 mg/kg, iv (reference value: 784 seconds); assay type: functional

SMILES | Ka [1] | selectivity ratio [3] | MTD [4] | Ka (Vecuronium) | solubility [5] | Ka [6] | Time (Rattus norvegicus [7]) | Ka (Cisatracurium) | selectivity ratio [8] | Time (Rattus norvegicus [9]) | Ka (Rocuronium) | Ka (Proflavine) | Ka (Rhodamine 6G) | Ka (Pancuronium) | Time (Rattus norvegicus [11]) | Time (Rattus norvegicus [13]) | further results
Cc1c(C)c(OCCCS(=O)(=O)[O-])c2c(c1OCCCS(=O)(=O)[O-])CN1C(=O)N3CN4C(=O)N5CN6C(=O)N7CN8C(=O)N9Cc%10c(c(OCCCS(=O)(=O)[O-])c(C)c(C)c%10OCCCS(=O)(=O)[O-])CN%10C(=O)N(CN%11C(=O)N(CN%12C(=O)N(CN%13C(=O)N(C2)[C@]1(C)[C@]%133C)[C@@H]4[C@@H]5%12)[C@@H]6[C@@H]7%11)[C@]8(C)[C@]%109C.[Na+].[Na+].[Na+].[Na+] | 119 10^7/M | 18.8 | 500 mg/kg | 2.92 10^7/M | 500 mg/mL | 0.069 10^7/M | 21 s | 0.13 10^7/M | 60 | 30 s | 9.84 10^7/M | 13 10^7/M | 0.045 10^7/M | 51 10^7/M | 13 s | 13 s | Time (Rattus norvegicus [2]): 28 s; Time (Rattus norvegicus [10]): 35 s; solubility [12]: 563 mg/mL
C[C@]12N3Cc4c(c(OCCCS(=O)(=O)[O-])c5c(c4OCCCS(=O)(=O)[O-])CCC5)CN1C(=O)N1CN4C(=O)N5CN6C(=O)N7CN8C(=O)N9Cc%10c(c(OCCCS(=O)(=O)[O-])c%11c(c%10OCCCS(=O)(=O)[O-])CCC%11)CN%10C(=O)N(CN%11C(=O)N(CN%12C(=O)N(CN(C3=O)[C@]12C)[C@@H]4[C@H]%125)[C@@H]6[C@H]%117)[C@]8(C)[C@@]9%10C.[Na+].[Na+].[Na+].[Na+] | 339 10^7/M | 18.8 | 500 mg/kg | 21 10^7/M | 1000 mg/mL | 0.043 10^7/M | 20 s | 0.088 10^7/M | 60 | 24 s | 20.1 10^7/M | 29.6 10^7/M | 0.1 10^7/M | 1.22 10^7/M | 12 s | 15 s | IC50 at 25 h [14]: > 1000 µg/mL; hemolysis [15]: < 5%; Activity [16]: Non-toxic; Time (Rattus norvegicus [17]): 27 s; Activity [18]: Non-toxic; Activity [19]: Non-toxic; hemolysis [20]: < 5%; Activity [21]: Non-toxic; Activity [22]: Non-toxic; Time (Rattus norvegicus [23]): 24 s; Activity [24]: Non-toxic; Time (Rattus norvegicus [25]): 15 s; Activity [26]: Non-toxic; viability at 25 h, 0.5 mg/ml [27]: 80%; Activity [28]: Non-toxic; Time (Rattus norvegicus [29]): 34 s
